Laboratory results published in publication PMC12155096 (International Journal of Molecular Sciences, 2025).
Like-named read-outs stand apart in the source and are kept apart here.

Tests used:
[1] = molecular target: Photinus pyralis (firefly) luciferase (Photinus pyralis, UniProt P08659); test: biochemical; type: biochemical
human CYP1A2 = molecular target: T1, human CYP1A2 (Homo sapiens, UniProt P05177)
T1 sequence (P05177 1-516): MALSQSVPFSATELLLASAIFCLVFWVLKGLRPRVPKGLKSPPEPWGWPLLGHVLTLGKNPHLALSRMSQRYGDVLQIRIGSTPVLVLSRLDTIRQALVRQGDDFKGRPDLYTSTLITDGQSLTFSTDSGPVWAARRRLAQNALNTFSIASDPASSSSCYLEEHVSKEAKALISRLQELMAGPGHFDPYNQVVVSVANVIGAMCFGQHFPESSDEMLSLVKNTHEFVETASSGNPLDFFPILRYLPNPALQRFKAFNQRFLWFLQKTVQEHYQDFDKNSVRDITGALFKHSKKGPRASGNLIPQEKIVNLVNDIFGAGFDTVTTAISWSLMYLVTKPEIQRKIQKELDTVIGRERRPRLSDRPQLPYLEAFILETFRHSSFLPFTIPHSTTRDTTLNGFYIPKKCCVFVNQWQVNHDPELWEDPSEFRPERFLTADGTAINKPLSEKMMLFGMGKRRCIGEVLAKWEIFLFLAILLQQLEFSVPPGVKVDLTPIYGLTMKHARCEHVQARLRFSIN

human CYP2D6 = human CYP2D6 (Homo sapiens, UniProt P10635)
human CYP2D6, sequence (P10635 whole entry): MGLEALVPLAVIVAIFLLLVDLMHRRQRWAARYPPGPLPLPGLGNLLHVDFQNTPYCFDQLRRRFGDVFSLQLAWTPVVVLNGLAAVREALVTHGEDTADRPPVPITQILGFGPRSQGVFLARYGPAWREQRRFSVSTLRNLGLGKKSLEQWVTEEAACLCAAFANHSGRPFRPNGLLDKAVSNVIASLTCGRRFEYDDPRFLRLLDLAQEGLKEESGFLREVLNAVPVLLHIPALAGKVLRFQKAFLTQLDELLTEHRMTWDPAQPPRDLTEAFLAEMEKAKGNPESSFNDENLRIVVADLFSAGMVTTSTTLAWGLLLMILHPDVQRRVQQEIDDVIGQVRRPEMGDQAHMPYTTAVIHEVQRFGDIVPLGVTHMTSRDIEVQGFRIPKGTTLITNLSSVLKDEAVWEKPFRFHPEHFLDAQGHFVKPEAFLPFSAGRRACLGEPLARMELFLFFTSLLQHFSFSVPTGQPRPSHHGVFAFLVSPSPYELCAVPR

human CYP2C19 = human CYP2C19 (Homo sapiens, UniProt P33261)
human CYP2C19, sequence (P33261 whole entry): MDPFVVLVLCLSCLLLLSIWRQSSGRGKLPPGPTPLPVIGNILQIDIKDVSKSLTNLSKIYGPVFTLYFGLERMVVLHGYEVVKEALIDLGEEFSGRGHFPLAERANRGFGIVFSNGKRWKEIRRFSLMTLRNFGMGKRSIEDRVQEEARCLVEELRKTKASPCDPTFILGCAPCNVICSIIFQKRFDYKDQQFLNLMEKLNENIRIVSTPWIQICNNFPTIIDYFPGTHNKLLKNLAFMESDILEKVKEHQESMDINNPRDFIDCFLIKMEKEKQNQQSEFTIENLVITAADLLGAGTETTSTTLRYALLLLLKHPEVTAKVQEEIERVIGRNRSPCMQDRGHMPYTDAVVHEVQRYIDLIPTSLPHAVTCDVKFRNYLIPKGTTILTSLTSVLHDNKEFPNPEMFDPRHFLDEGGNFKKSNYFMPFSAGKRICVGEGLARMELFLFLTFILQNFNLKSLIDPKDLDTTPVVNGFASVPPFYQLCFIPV

human CYP2C9 = human CYP2C9 (Homo sapiens, UniProt P11712)
human CYP2C9, sequence (P11712 whole entry): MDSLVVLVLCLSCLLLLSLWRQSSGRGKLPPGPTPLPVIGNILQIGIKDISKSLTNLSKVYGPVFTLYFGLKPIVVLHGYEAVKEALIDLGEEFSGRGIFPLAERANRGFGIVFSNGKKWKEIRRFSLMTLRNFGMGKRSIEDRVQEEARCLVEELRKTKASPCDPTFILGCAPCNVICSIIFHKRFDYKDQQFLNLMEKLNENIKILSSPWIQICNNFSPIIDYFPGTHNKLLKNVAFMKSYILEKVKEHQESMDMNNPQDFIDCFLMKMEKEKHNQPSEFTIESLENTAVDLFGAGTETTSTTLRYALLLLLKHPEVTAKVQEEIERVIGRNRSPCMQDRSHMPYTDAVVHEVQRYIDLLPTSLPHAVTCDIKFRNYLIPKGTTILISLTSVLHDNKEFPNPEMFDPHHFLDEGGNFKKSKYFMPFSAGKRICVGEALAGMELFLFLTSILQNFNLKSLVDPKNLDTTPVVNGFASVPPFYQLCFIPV

CYP3A4 = CYP3A4 (Homo sapiens, UniProt P08684)
CYP3A4, sequence (P08684 whole entry): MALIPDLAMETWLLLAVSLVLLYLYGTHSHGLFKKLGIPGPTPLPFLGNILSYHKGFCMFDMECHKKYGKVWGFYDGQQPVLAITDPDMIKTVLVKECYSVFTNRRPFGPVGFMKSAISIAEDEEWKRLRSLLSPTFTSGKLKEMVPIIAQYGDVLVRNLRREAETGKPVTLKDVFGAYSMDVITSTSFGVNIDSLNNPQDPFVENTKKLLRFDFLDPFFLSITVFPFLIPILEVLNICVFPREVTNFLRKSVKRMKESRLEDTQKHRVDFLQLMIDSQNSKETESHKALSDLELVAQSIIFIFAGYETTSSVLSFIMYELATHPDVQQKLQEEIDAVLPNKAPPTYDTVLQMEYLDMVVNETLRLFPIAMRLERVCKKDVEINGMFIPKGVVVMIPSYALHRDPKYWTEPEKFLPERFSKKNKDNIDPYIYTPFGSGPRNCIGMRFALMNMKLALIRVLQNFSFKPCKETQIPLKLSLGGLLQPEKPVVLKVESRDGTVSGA

[2] = read-out: Luciferase IC50 (half-maximal inhibitory concentration)

Photinus pyralis (firefly) luciferase, sequence (P08659 whole entry): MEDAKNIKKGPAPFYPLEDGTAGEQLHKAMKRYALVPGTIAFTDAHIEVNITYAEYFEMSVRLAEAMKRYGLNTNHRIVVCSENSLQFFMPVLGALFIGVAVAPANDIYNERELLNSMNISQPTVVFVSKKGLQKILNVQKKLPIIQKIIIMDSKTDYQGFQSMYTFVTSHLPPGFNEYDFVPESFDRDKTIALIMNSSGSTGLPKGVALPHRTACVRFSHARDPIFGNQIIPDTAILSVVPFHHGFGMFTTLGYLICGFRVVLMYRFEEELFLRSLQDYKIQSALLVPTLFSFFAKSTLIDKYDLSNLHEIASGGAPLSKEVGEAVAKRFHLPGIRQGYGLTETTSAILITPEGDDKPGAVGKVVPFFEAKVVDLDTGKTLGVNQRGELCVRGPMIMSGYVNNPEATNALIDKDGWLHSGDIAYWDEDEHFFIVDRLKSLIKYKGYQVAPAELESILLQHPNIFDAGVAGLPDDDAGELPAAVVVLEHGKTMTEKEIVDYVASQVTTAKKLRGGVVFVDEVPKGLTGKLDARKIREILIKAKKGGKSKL

Compound	Luciferase IC50 (half-maximal inhibitory concentration) [1]	IC50 (human CYP1A2) [µM]	IC50 (human CYP2D6) [µM]	IC50 (human CYP2C19) [µM]	IC50 (human CYP2C9) [µM]	IC50 (CYP3A4) [µM]	other results
O=C(NCc1cccnc1)Nc1ccc([N+](=O)[O-])cc1 [Pyrinuron]	Inactive	15.5	44.8	3.28	5.43	0.93	CYP1A2 Efficacy (in parenthesis) (human CYP1A2): 15.45 ± 2.63 (-100 ± 0) %; CYP2D6 Efficacy (in parenthesis) (human CYP2D6): 44.8 ± 15.98 (-64 ± 3) %; CYP2C19 Efficacy (in parenthesis) (human CYP2C19): 3.28 ± 1.56 (-135 ± 13) %; CYP2C9 Efficacy (in parenthesis) (human CYP2C9): 5.43 ± 0.35 (-105 ± 9) %; CYP3A4 Efficacy (in parenthesis) (CYP3A4): 0.93 ± 0.12 (-76 ± 5) %
N#Cc1c(-c2ccc(Cl)cc2)[nH]c(C(F)(F)F)c1Br [Tralopyril]	Inactive	0.33	65.8	35	10.4		CYP3A4 IC50 (half-maximal inhibitory concentration) (CYP3A4): Inactive
Cl.ClCCCN1CCN(c2cccc(Cl)c2)CC1							Luciferase IC50 [1]: Inactive; AC50 (human CYP1A2): 16.1 µM; CYP1A2 Efficacy (human CYP1A2): 16.12 ± 1.09 (-77 ± 4) %; AC50 (human CYP2D6): 0.79 µM; CYP2D6 Efficacy (human CYP2D6): 0.79 ± 0.18 (-96 ± 4) %; AC50 (human CYP2C19): 8.86 µM; CYP2C19 Efficacy (human CYP2C19): 8.86 ± 2.03 (-125 ± 5) %; AC50 (human CYP2C9): 16.8 µM; CYP2C9 Efficacy (human CYP2C9): 16.75 ± 1.09 (-48 ± 5) %; AC50 (CYP3A4): 15.5 µM; CYP3A4 IC50 (CYP3A4): 15.49 ± 0 (111 ± 12) µM
C[N+](C)(CCOc1ccccc1)Cc1cccs1.[I-]	Inactive		0.15				CYP1A2 IC50 (half-maximal inhibitory concentration) (human CYP1A2): Inactive; CYP2C19 IC50 (half-maximal inhibitory concentration) (human CYP2C19): Inactive; CYP2C9 IC50 (half-maximal inhibitory concentration) (human CYP2C9): Inactive; CYP3A4 IC50 (half-maximal inhibitory concentration) (CYP3A4): Inactive
CCCCCCCC[N+](C)(CCCCCCCC)CCCCCCCC.O=S(=O)([O-])C(F)(F)F	Inactive	47.6	0.19	12.9	28.3	3.7	
O=S(=O)([O-])C(F)(F)C(F)(F)C(F)(F)C(F)(F)C(F)(F)C(F)(F)C(F)(F)C(F)(F)F.[K+] [PFOS-K]	Inactive			39.6	0.61		CYP1A2 IC50 (half-maximal inhibitory concentration) (human CYP1A2): Inactive; CYP2D6 IC50 (half-maximal inhibitory concentration) (human CYP2D6): Inactive; CYP3A4 IC50 (half-maximal inhibitory concentration) (CYP3A4): Inactive
CCCN(CCC)CCc1c[nH]c2ccccc12.Cl [N,N-Dipropyltryptamine hydrochloride]		20.8	0.31	65.9			Luciferase IC50 [1]: Inactive; CYP2C9 IC50 (human CYP2C9): Inactive; CYP3A4 IC50 (CYP3A4): Inactive
COP(=S)(NC(C)C)Oc1ccc(C)cc1[N+](=O)[O-] (stereo not drawn) [Amiprofos-methyl]	Inactive	12.3	41.7	0.41	2.74	0.55	CYP1A2 Efficacy (in parenthesis) (human CYP1A2): 12.35 ± 5.02 (-104 ± 9) %; CYP2D6 Efficacy (in parenthesis) (human CYP2D6): 41.71 ± 5.32 (-58 ± 14) %; CYP2C19 Efficacy (in parenthesis) (human CYP2C19): 0.41 ± 0.19 (-132 ± 27) %; CYP2C9 Efficacy (in parenthesis) (human CYP2C9): 2.74 ± 0.38 (-109 ± 3) %; CYP3A4 Efficacy (in parenthesis) (CYP3A4): 0.55 ± 0.08 (-87 ± 1) %
CN1CCN(C2Cc3ccccc3Sc3ccc(Cl)cc32)CC1.O=C(O)/C=C\C(=O)O (stereo not drawn) [Octoclothepine maleate]		28.3	0.26	11.5	30.6	2.28	Luciferase IC50 [1]: Inactive
Oc1cc2ccccc2c2ccccc12 [9-Phenanthrol]		0.05	2.53	1.22	4.41		Luciferase Efficacy (in parenthesis) [1]: 71.29 ± 8.19 (-61 ± 21) %; IC50 [1, 2]: 71.3 µM; CYP1A2 Efficacy (in parenthesis) (human CYP1A2): 0.05 ± 0.01 (-99 ± 4) %; CYP2D6 Efficacy (in parenthesis) (human CYP2D6): 2.53 ± 0.29 (-109 ± 3) %; CYP2C19 Efficacy (in parenthesis) (human CYP2C19): 1.22 ± 0.17 (-132 ± 15) %; CYP2C9 Efficacy (in parenthesis) (human CYP2C9): 4.41 ± 1.07 (-106 ± 2) %; CYP3A4 Efficacy (in parenthesis) (CYP3A4): 6.1 ± 0.4 (-91 ± 4) %
COc1cc(Cl)ccc1Oc1ccc(Cl)cc1Cl [Methyl triclosan]		15.1		0.72	12	70.2	IC50 ([1]; read-out: Luciferase IC50): 48.9 µM; CYP2D6 IC50 (human CYP2D6): Inactive
Nc1nc2ccc([N+](=O)[O-])cc2s1 [2-Amino-6-nitrobenzothiazole]		9.75	44	35.7		60.6	IC50 ([1]; read-out: Luciferase IC50): 66.4 µM; CYP2C9 Efficacy (human CYP2C9): 59.75 ± 4.61 (-39 ± 3) %
N=C(Nc1ccccc1)Nc1ccccc1 [1,3-Diphenylguanidine]		30.8	0.2	45	53.1	51.9	Luciferase IC50 [1]: Inactive
[I][Hg][I] [Mercury(II) iodide]		3.7	1.67	1.04	0.54	2.53	IC50 ([1]; read-out: Luciferase IC50): 5.25 µM
CC(C)(C)c1cc(CCC(=O)NN)cc(C(C)(C)C)c1O	Inactive	6.97	34.3	5.4	5.92	0.14	CYP1A2 Efficacy (in parenthesis) (human CYP1A2): 6.97 ± 1.74 (-102 ± 5) %; CYP2D6 Efficacy (in parenthesis) (human CYP2D6): 34.28 ± 2.23 (-95 ± 1) %; CYP2C19 Efficacy (in parenthesis) (human CYP2C19): 5.4 ± 1.6 (-136 ± 2) %; CYP2C9 Efficacy (in parenthesis) (human CYP2C9): 5.92 ± 1.06 (-98 ± 3) %; CYP3A4 Efficacy (in parenthesis) (CYP3A4): 0.14 ± 0.02 (-94 ± 4) %
CC(=O)/C=C/c1ccc2c(c1)OCO2 [Piperonal acetone]		0.25		14.5		4.65	IC50 [1, 2]: 40.3 µM; CYP2D6 Efficacy (human CYP2D6): 31 ± 5.28 (-103 ± 9) %; CYP2C9 Efficacy (human CYP2C9): 8.04 ± 0.92 (-118 ± 10) %
O=S(=O)(Oc1ccc(Cl)cc1)c1ccccc1 [Fenson]		5.64	35.7	0.78	34.3		Luciferase Efficacy (in parenthesis) [1]: 76.75 ± 5.00 (-30 ± 10) %; IC50 [1, 2]: 76.8 µM; CYP1A2 Efficacy (human CYP1A2): 5.64 ± 0.00 (-100 ± 5) %; CYP1A2 Efficacy (in parenthesis) (human CYP1A2): 5.64 ± 0 (-100 ± 5) %; AC50 (human CYP2D6): 35.7 µM; CYP2D6 Efficacy (human CYP2D6): 35.73 ± 4.11 (-62 ± 14) %; CYP2C19 Efficacy (human CYP2C19): 0.78 ± 0.29 (-135 ± 6) %; CYP2C19 Efficacy (in parenthesis) (human CYP2C19): 0.78 ± 0.29 (-135 ± 6) %; AC50 (human CYP2C9): 34.3 µM; CYP2C9 Efficacy (human CYP2C9): 34.28 ± 2.23 (-89 ± 7) %; AC50 (CYP3A4): 6.61 µM; CYP3A4 Efficacy (in parenthesis) (CYP3A4): 6.61 ± 0.84 (131 ± 4) %; CYP3A4 IC50 (half-maximal inhibitory concentration) (CYP3A4): 6.61 ± 0.84 (131 ± 4) µM
[Cl][Bi]([Cl])([c]1ccccc1)([c]1ccccc1)[c]1ccccc1 [Triphenylbismuthine dichloride]		17.2	7.15	0.28	0.88	15	IC50 ([1]; read-out: Luciferase IC50): 13.2 µM
Cl.Clc1ccc(C(OCCN2CCCCC2)c2ccccc2)cc1 (stereo not drawn) [Cloperastine hydrochloride]		22.5	0.17	18.5		4.43	Luciferase IC50 [1]: Inactive; CYP2C9 IC50 (human CYP2C9): Inactive
